# Test results: patent EP3057951B1, “METHYLENE LINKED QUINOLINYL MODULATORS OF ROR-GAMMA-T” (Janssen Pharmaceutica NV, priority 2013, dated 2015)
# Like-named read-outs stand apart in the source and are kept apart here.
# How the values were obtained:
# [1] = biological target: T1, wild type human RORγt LBD (Homo sapiens, UniProt P51449); test: RORγt (LBD) Reporter Assay (GAL4-luciferase, HEK293T cells); format: cell-based; conditions: for inhibition at 6 µM: HEK-293T, read-out: RORγt (LBD) Reporter Assay, % inhibition @ 6 µM, 6 µM compound concentration
# T1 construct: expressed in transfected cells; host or cells: HEK293T
# T1 sequence (P51449 258-518): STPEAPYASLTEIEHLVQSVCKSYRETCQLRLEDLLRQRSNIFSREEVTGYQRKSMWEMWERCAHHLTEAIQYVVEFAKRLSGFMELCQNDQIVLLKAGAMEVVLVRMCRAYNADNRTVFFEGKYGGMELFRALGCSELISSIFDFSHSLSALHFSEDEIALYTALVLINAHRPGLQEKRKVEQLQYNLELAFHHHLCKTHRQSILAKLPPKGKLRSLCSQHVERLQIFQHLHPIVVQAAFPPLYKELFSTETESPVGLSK
# [2] = biological target: T2, wild type human RORγt ligand binding domain (RORyt LBD) (Homo sapiens, UniProt P51449); test: RORγt ThermoFluor assay (thermal shift, binding affinity KD)
# T2 construct: His-tag (N); TurboTEV protease cleavage site (ENLYFQG) (N); made in house; host or cells: E. coli (pHIS1, modified pET vector)
# T2 sequence (P51449 258-518): T1 sequence (P51449 258-518)
# [3] = HEK293T cells, value after the comma with ∼, > or < could not be included in the average
"IC50 [1, 3]",inhibition at 6 µM [1],Kd [2],IC50 ([1]; HEK293T cells),inhibition at 6 µM ([1]; HEK293T cells),Compound
32 nM,104%,11 nM,,,"COc1nc2ccc(C(O)(c3ccc(Cl)cc3)c3cncn3C)cc2c(C#N)c1Cc1ccc(C(F)(F)F)cc1 (racemic) [Example 55a, 6-((4-Chlorophenyl)(hydroxy)(1-methyl-1H-imidazol-5-yl)methyl)-2-methoxy-3-(4-(trifluoromethyl)benzyl)quinoline-4-carbonitrile]"
140 nM,99%,68 nM,,,COc1ccc(C(O)(c2cccnc2)c2ccc3nc(OC)c(Cc4ccc(-n5cccn5)cc4)c(Cl)c3c2)cc1 (stereo not drawn) [Example 63]
,,150 nM,140 nM,94%,Cc1cc(C(O)(c2ccc(Cl)cc2)c2cncn2C)cc2c(Cl)c(Cc3ccc(-n4cccn4)cc3)c(N3CCC3)nc12 (stereo not drawn) [Example 136a]
33 nM,101%,3.1 nM,,,"Cc1nc2ccc(C(O)(c3ccc(C(F)(F)F)nc3)c3cncn3C)cc2c(Cl)c1Cc1ccc(C(F)(F)F)cc1 (stereo not drawn) [Example 26a, (4-Chloro-2-methyl-3-(4-(trifluoromethyl)benzyl)quinolin-6-yl)(1-methyl-1H-imidazol-5-yl)(6-(trifluoromethyl)pyridin-3-yl)methanol]"
